For the assay, the target named is T1, human 5HT1A receptor (Homo sapiens, UniProt P08908).
T1 construct: expressed in transfected cells; host or cells: CHO cells (stably transfected)
T1 sequence (P08908 1-422): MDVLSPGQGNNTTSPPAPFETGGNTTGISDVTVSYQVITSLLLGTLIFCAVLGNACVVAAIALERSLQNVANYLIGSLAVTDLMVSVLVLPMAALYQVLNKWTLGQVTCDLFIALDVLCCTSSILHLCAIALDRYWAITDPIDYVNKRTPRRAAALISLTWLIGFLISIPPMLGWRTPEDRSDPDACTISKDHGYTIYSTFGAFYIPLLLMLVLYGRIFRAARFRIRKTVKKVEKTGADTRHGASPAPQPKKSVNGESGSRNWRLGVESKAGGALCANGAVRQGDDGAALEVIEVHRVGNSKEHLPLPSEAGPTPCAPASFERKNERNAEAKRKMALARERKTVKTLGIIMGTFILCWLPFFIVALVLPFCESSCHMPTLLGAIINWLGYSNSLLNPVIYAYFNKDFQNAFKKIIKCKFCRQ
Kind of assay: 5-HT1A Receptor Binding Assay (displacement of [3H]8-OH-DPAT in CHO cells stably transfected with human 5HT1A receptor). As to conditions: displacement of 8-OH-DPAT, 1.5 nM ligand, 30 minute incubation at room temperature. How it is done: High affinity for the serotonin 5--HT1A receptor was established by testing the claimed compound's ability to displace [^3 ]8-OH-DPAT binding in CHO cells stably transfected with human 5HT1A receptor. Stably transfected CHO cells are grown in DMEM containing 10% heat inactivated FBS and non-essential amino acids. Cells are scraped off the plate, transferred to centrifuge tubes, and washed twice by centrifugation (2000 rpm for 10 min., 4° C.) in buffer (50 mM Tris pH 7.5). The resulting pellets are aliquoted and placed at -80° C. On the day of assay, the cells are thawed on ice and resuspended in buffer. The binding assay is performed in a 96 well microtiter plate in a total volume of 250 μL. Non-specific binding is determined in the presence of […] 5HT, final ligand concentration is 1.5 nM. Following a 30 minute incubation at room temperature, the reaction is terminated by the addition of ice cold buffer and rapid filtration through a GF/B filter presoaked for 30 minutes in 0.5% PEI. Compounds are initially tested in a single point assay to determine percent inhibition at 1, 0.1, and 0.01 mM, and Ki values are determined for the active compounds.
(In general: In a radioligand displacement assay an active substance lowers the binding of a labelled ligand.)
For orientation: Ki means a measure of affinity in units of concentration, obtained from inhibition or displacement. A high value points to lower affinity. Molecule `COc1ccccc1N1CCN(Cc2oc(C3CCCCC3)nc2Cc2ccccc2)CC1` [Example 11, 1-(4Benzyl-2-cyclohexyl-oxazol-5-ylmethyl)-4-(2-methoxyphenyl)-piperazine] had a Ki of 0.88 nM.

Molecule `c1ccc(Cc2nc(C3CCCCC3)oc2CN2CCN(c3cccc4[nH]ccc34)CC2)cc1` [Example 10, 4-[4-(4-Benzyl-2-cyclohexyl-oxazol-5-ylmethyl)-piperazin-1-yl]-1H-indole] displayed an inhibition constant (Ki) of 7.1 nM. Next, `c1ccc(Cc2nc(C3CCCCC3)oc2CN2CCN(c3cccc4c3OCCO4)CC2)cc1` [Example 9, 1-(4-Benzyl-2-cyclohexyl-oxazol-5-ylmethyl)-4(2,3-dihydro-benzo[1,4]dioxin-5-yl)-piperazine]: 4.72 nM.

The record behind these values is US6242448A, “Trisubstituted-oxazole derivatives as serotonin ligands” (American Home Products Corporation, priority 1999, dated 2001).
